From publication PMC6317078 (Science (New York, N.Y.), 2018)

Biological target: T1, zfDHHC15 (Danio rerio, UniProt F1QXD3, C153S)
T1 sequence (F1QXD3 1-332 C153S): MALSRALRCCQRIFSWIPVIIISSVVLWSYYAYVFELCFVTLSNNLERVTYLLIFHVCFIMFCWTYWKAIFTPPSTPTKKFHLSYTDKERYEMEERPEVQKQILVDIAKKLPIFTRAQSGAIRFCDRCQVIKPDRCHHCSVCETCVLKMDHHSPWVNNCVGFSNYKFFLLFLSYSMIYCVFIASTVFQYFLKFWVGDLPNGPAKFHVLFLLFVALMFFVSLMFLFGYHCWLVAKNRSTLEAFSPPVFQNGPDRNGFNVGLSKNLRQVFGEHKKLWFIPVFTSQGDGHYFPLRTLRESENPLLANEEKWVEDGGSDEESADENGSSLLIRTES
Assay: X-ray crystal structure
Settings: 2.54 Å; acyl-binding cavity; ligand modelled into density, not added

Compound: CCCCCCCCCCCCCCCC(=O)O [palmitic acid]
- X-ray crystal structure: continuous density in this cavity, which we modeled as a palmitic acid
